# Results published in PMC3856564 (Angewandte Chemie (International ed. in English), 2013).
# How the values were obtained:
# [1] = target: topoisomerase (DNA) II alpha (TOP2A) (Homo sapiens, UniProt P11388); assay: surface plasmon resonance; assay type: binding
# [2] = target: PARP1 (Homo sapiens, UniProt P09874); assay: surface plasmon resonance; assay type: binding
# Sequence of PARP1 (P09874 2-1014): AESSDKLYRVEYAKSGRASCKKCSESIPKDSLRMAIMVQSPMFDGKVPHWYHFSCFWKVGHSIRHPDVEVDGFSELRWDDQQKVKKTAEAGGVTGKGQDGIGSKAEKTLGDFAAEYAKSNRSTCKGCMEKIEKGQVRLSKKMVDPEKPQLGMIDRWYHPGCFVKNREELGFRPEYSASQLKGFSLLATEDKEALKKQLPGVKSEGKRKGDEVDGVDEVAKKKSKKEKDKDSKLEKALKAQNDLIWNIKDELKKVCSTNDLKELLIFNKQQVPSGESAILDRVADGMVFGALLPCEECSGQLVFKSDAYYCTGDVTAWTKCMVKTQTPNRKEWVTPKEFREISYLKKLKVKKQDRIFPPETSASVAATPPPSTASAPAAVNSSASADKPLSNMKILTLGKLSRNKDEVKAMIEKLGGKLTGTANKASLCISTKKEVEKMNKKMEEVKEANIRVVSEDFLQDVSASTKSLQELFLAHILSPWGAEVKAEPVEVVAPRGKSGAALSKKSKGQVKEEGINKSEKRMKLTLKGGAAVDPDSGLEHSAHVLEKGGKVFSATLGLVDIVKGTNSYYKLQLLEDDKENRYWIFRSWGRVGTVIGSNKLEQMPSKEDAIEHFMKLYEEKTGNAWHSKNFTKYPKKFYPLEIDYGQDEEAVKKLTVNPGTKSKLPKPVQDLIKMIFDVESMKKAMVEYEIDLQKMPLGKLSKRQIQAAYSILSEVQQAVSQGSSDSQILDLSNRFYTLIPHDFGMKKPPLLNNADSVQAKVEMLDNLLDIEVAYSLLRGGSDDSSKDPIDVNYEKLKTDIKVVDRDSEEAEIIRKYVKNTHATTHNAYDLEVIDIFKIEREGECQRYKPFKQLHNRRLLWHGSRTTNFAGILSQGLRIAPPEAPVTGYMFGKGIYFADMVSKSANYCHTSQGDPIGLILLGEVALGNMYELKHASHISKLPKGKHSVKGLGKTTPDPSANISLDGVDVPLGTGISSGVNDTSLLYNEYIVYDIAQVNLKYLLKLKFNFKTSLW
# Sequence of topoisomerase (DNA) II alpha (TOP2A) (P11388 whole entry): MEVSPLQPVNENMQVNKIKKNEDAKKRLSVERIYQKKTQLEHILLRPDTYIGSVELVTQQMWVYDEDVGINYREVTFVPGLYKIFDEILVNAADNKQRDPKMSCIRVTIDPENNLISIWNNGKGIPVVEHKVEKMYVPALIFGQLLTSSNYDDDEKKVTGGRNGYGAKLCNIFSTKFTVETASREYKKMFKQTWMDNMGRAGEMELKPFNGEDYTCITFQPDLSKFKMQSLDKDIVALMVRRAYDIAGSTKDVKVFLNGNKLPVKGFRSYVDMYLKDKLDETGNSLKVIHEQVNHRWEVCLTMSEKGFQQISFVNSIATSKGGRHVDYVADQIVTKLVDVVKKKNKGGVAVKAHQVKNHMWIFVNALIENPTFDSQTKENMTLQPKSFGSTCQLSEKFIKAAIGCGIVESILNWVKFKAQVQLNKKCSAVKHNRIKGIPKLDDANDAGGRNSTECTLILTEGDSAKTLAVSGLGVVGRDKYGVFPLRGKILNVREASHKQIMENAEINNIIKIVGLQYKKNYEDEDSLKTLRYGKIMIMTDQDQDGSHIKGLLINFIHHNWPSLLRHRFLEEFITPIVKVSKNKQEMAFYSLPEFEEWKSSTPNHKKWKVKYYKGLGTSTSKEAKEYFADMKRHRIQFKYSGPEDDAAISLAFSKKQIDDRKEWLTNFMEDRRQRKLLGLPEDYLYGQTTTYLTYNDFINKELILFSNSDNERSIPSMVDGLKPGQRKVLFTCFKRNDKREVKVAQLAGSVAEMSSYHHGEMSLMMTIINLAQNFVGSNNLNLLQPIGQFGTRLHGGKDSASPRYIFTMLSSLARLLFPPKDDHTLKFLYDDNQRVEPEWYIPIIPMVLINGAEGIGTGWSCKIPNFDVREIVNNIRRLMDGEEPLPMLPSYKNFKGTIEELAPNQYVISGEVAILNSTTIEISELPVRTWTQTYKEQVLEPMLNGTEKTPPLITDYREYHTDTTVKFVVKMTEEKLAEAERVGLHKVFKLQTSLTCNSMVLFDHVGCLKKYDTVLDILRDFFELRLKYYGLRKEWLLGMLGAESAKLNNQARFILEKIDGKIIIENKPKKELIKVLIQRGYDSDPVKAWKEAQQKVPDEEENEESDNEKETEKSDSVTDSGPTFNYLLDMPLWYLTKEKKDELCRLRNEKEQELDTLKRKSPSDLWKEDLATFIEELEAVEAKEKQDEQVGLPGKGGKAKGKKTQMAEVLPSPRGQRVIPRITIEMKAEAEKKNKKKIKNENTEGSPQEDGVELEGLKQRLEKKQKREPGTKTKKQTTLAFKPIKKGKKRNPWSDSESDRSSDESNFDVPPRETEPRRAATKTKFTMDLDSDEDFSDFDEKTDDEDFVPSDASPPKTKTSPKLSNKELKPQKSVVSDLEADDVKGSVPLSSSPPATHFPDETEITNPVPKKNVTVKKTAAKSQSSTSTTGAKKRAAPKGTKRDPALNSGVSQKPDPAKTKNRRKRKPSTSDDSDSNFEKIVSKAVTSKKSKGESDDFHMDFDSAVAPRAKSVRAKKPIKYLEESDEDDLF
substance,measurement,setting,value
Olaparib-TCO,Kd,[1],~0.0037 µM
same,Kd,[2],0.022 µM
